According to patent US11541051B2, “Compositions and methods for treating CDK4/6-mediated cancer” (Icahn School of Medicine at Mount Sinai, priority 2016, dated 2023):
Entries after “also recorded” stand apart in the source; their conditions may differ.

Tests used:
Assay type in all cases: cell-based
CDK4/6 [1] = assay: Western blot of CDK4/6 and phospho-Rb in T47D breast cancer cells treated with degraders (Example 12, FIGS. 10 B, 17, 19); details: 0.3 or 1 μM, 24 h
Protocol: (§1) Breast cancer cell lines (MCF7, T47D, and ZR-75-1) and melanoma cell lines (A375, SK-MEL-2, SK-MEL-30, and WM1382) were cultured in the presence of DMEM or RPMI supplemented with 10% FBS in the presence of penicillin and streptomycin.
(§2) Protein concentrations were determined by BCA from cell lysates and equal amounts of protein are loaded to a Bis-Tris 4-12% gel. Gels were run at 80 V for 4 h using 1× running buffer (25 mM Tris, pH 8.3, […] glycine, 0.1% SDS). Proteins were transferred to a nitrocellulose membrane for 2 h at 100 V using transfer buffer (25 mM Tris, pH 8.3, […] glycine, 20% methanol). Ponceau S staining (0.1% Ponceau S, 1% acetic acid) was used to confirm transfer of proteins to the membrane followed by blocking of the membrane for 30 min at room temperature using blocking buffer (5% dry nonfat milk, 0.1% Tween, 0.02% sodium azide in TBS). The blocked membrane is incubated with primary antibodies (1:1000 dilution) in blocking buffer at 4° C. overnight. When primary phosphor-antibodies were used, then the membrane is incubated with 5% BSA instead of milk. The membrane was washed three times, 10 min each, with wash buffer (0.1% Tween in TBS) followed by incubation with secondary HRP conjugated antibody (1:5000 dilution) in 2.5% dry nonfat milk, 0.1% Tween in TBS for 1 h at room temperature. The membrane was washed three times, 10 min each, with wash buffer (0.1% Tween in TBS). Membranes are incubated with ECL for 1 min and proteins are detected after exposure to a blue autoradiographic film.
(§3) MCF7 breast cancer cells were treated with 1 or 5 μM XY019-095, XY019-098, XY019-0100, XY019-105A, XY019-105B, XY019-106, or XY019-108 for 24 h, then lysed and immunoblotted with antibodies to CDK4, CDK6, and actin (FIG. 10, panel A). […] T47D breast cancer cells were treated with 0.1, 0.3, 1, 3, 10, or 30 μM XY019-106 for 24 h, then lysed and immunoblotted with antibodies to phospho-Rb (pRB), CDK4, and actin (FIG. 10, panel B).
T47D breast cancer cells (FIG. 17) were treated with 0.3 or 1 μM XY028-140, YX039-48, YX039-123, YX039-56, YX039-124, YX039-65, YX039-147 or YX039-74 for 24 h, then lysed and immunoblotted with antibodies to phospho-Rb (pRb), total Rb, PLK1, cyclin A, CDK4, CDK6, and actin.
T47D breast cancer cells (FIG. 19) were treated with 0.3 or 1 μM XY028-133, YX044-18, YX044-22, XY028-140, YX044-19 or YX044-38 for 24 h, then lysed and immunoblotted with antibodies to phospho-Rb (pRb), total Rb, PLK1, cyclin A, CDK4, CDK6, and actin.

CDK4/6 [2] = assay: Characterization of CDK4/6 degraders/disruptors in various breast cancer and melanoma cells (summary, Examples 12 and 13)
Protocol: Specific exemplary abemaciclib-, ribociclib-, and palbociclib-based CDK4/6 degraders/disruptors were characterized in various different breast cancer and melanoma cells (Examples 12 and 13, FIGS. 10-23). […] This efficacy in suppressing CDK4/6 expression and CDK4/6 activity correlated with efficacy in inhibiting cancer cell proliferation.
as §2

CDK4/6 [3] = assay: Western blot of CDK4 and CDK6 in MCF7 breast cancer cells treated with degraders (Example 12, FIG. 10 A); details: 1 or 5 μM, 24 h
Protocol: as §1, §2, §3

T47D breast cancer cells = assay: Crystal violet staining (clonogenic assay) of T47D breast cancer cells (Example 13, FIGS. 22, 23); details: 11 days
Protocol: Cells were cultured for 7-11 days in the presence of different compounds. Media with compound was replenished every two days. At the end of the experiment, media was aspirated and viable cells were stained with 0.5% crystal violet dye.

CDK4/6 [4] = assay: Western blot of CDK4, CDK6 and phospho-Rb in A375 melanoma cells treated with degraders (Example 12, FIGS. 12, 13, 16, 18); details: 1 or 3 μM, 24 h
Protocol: as §1, §2
A375 melanoma cells (FIG. 13) were treated with 1 or 3 μM Ribociclib (RB), YX030-126, YX030-108, YX030-107, YX030-086, YX030-085 or XY028-133 for 24 h, then lysed and immunoblotted with antibodies to CDK4, CDK6, cyclin A, PLK1, phospho-Rb (pRb), and actin.
A375 melanoma cells (FIG. 16, panel A) were treated with 0.3 or 1 μM XY028-140, YX039-65, YX039-48, YX039-123, YX039-56, YX039-124 or YX039-147 for 24 h. A375 melanoma cells were treated with 1 or 3 μM XY028-140, YX039-56, YX039-65 or XY028-133 (FIG. 16, panel B). Cells were lysed and immunoblotted with antibodies to phospho-Rb (pRb), total Rb, PLK1, cyclin A, CDK4, CDK6, and actin.
A375 melanoma cells (FIG. 18) were treated with 1 or 3 μM XY028-133, YX044-18, YX044-22, XY028-140, YX044-19 or YX044-38 for 24 h, then lysed and immunoblotted with antibodies to phospho-Rb (pRb), total Rb, PLK1, cyclin A, CDK4, CDK6, and actin.

CDK4/6 [5] = assay: Western blot of CDK4, CDK6 and phospho-Rb in SK-MEL-2 or A375 melanoma cells treated with degraders (Example 12, FIG. 11); details: SK-MEL-2 or A375 cells; 1 or 3 μM; 24 h
Protocol: as §1
as §2, with “The membrane was washed three times, 10 min each, with wash buffer (0.1% Tween in TBS) followed by incubation with secondary HRP conjugated antibody (1:5000 dilution) in 2.5% dry nonfat milk, 0.1% Tween in TBS for 1 h at room temperature. The membrane was washed three times, 10 min each, with wash buffer (0.1% Tween in TBS).” left out, “film. […]” for “film.”

| SMILES | efficacy in inhibiting both CDK4/6 expression and CDK4/6 activity (decreased Rb phosphorylation) (CDK4/6 [1]) | suppression of both CDK4/6 expression and CDK4/6 activity (summary) (CDK4/6 [2]) | suppression of CDK4/6 expression (CDK4/6 [3]) | inhibition of cancer cell proliferation compared with palbociclib (crystal violet staining) (T47D breast cancer cells; 0.003, 0.01 or 0.03 μM) | inhibition of cancer cell proliferation compared with palbociclib (crystal violet staining) (T47D breast cancer cells; 0.03, 0.1, 0.3, 1 or 3 μM) | efficacy in inhibiting both CDK4/6 expression and CDK4/6 activity (decreased Rb phosphorylation) (CDK4/6 [4]) | efficacy in inhibiting both CDK4/6 expression and CDK4/6 activity (decreased Rb phosphorylation) (CDK4/6 [5]) |
| --- | --- | --- | --- | --- | --- | --- | --- |
| CC(=O)c1c(C)c2cnc(Nc3ccc(N4CCCN(C(=O)CNc5cccc6c5C(=O)N(C5CCC(=O)NC5=O)C6=O)CC4)cn3)nc2n(C2CCCC2)c1=O (centres unmarked) [YX044-19, 4-((2-(4-(6-((6-acetyl-8-cyclopentyl-5-methyl-7-oxo-7,8-dihydropyrido[2,3-d]pyrimidin-2-yl)amino)pyridin-3-yl)-1,4-diazepan-1-yl)-2-oxoethyl)amino)-2-(2,6-dioxopiperidin-3-yl)isoindoline-1,3-dione] | efficacy of CDK4/6 degraders, particularly XY028-140 and YX044-22 and YX044-19 |  |  |  |  |  |  |
| CC(=O)c1c(C)c2cnc(Nc3ccc(N4CCN(C(=O)CCOCCOCCOCCNc5cccc6c5C(=O)N(C5CCC(=O)NC5=O)C6=O)CC4)cn3)nc2n(C2CCCC2)c1=O (centres unmarked) [XY019-108, 4-((2-(2-(2-(3-(4-(6-((6-acetyl-8-cyclopentyl-5-methyl-7-oxo-7,8-dihydropyrido[2,3-d]pyrimidin-2-yl)amino)pyridin-3-yl)piperazin-1-yl)-3-oxopropoxy)ethoxy)ethoxy)ethyl)amino)-2-(2,6-dioxopiperidin-3-yl)isoindoline-1,3-dione] |  | especially effective in suppressing both CDK4/6 expression and CDK4/6 activity | especially effective in suppressing CDK4/6 expression even at 1 μM |  |  |  |  |
| CC(=O)c1c(C)c2cnc(Nc3ccc(N4CCN(C(=O)COc5cccc6c5CN(C5CCC(=O)NC5=O)C6=O)CC4)cn3)nc2n(C2CCCC2)c1=O (centres unmarked) [YX039-123, 3-(4-(2-(4-(6-((6-acetyl-8-cyclopentyl-5-methyl-7-oxo-7,8-dihydropyrido[2,3-d]pyrimidin-2-yl)amino)pyridin-3-yl)piperazin-1-yl)-2-oxoethoxy)-1-oxoisoindolin-2-yl)piperidine-2,6-dione] | efficacy of CDK4/6 degraders, particularly XY028-140 and YX039-123 | especially effective in suppressing both CDK4/6 expression and CDK4/6 activity |  | inhibited cancer cell proliferation more effective that palbociclib at the same concentration | inhibited cancer cell proliferation more effective that palbociclib at the same concentration |  |  |
| CC(=O)c1c(C)c2cnc(Nc3ccc(N4CCN(C(=O)CCOCCC(=O)N[C@H](C(=O)N5C[C@H](O)C[C@H]5C(=O)NCc5ccc(-c6scnc6C)cc5)C(C)(C)C)CC4)cn3)nc2n(C2CCCC2)c1=O [XY028-003, (2S,4R)-1-((S)-2-(3-(3-(4-(6-((6-acetyl-8-cyclopentyl-5-methyl-7-oxo-7,8-dihydropyrido[2,3-d]pyrimidin-2-yl)amino)pyridin-3-yl)piperazin-1-yl)-3-oxopropoxy)propanamido)-3,3-dimethylbutanoyl)-4-hydroxy-N-(4-(4-methylthiazol-5-yl)benzyl)pyrrolidine-2-carboxamide] |  | especially effective in suppressing both CDK4/6 expression and CDK4/6 activity |  |  |  | efficacy of CDK4/6 degraders, particularly XY028-133, XY028-140, XY019-106 and XY028-003 | efficacy of CDK4/6 degraders/disruptors, particularly XY019-106 and XY028-003 |
| CC(=O)c1c(C)c2cnc(Nc3ccc(N4CCN(C(=O)COCCOCCOCC(=O)N[C@H](C(=O)N5C[C@H](O)C[C@H]5C(=O)NCc5ccc(-c6scnc6C)cc5)C(C)(C)C)CC4)cn3)nc2n(C2CCCC2)c1=O [XY019-098, (2S,4R)-1-((S)-14-(4-(6-((6-acetyl-8-cyclopentyl-5-methyl-7-oxo-7,8-dihydropyrido[2,3-d]pyrimidin-2-yl)amino)pyridin-3-yl)piperazin-1-yl)-2-(tert-butyl)-4,14-dioxo-6,9,12-trioxa-3-azatetradecanoyl)-4-hydroxy-N-(4-(4-methylthiazol-5-yl)benzyl)pyrrolidine-2-carboxamide] |  | especially effective in suppressing both CDK4/6 expression and CDK4/6 activity | especially effective in suppressing CDK4/6 expression even at 1 μM |  |  |  |  |
| CC(=O)c1c(C)c2cnc(Nc3ccc(N4CCN(C(=O)CNc5cccc6c5C(=O)N(C5CCC(=O)NC5=O)C6=O)CC4)cn3)nc2n(C2CCCC2)c1=O (centres unmarked) [XY028-140, 4-((2-(4-(6-((6-acetyl-8-cyclopentyl-5-methyl-7-oxo-7,8-dihydropyrido[2,3-d]pyrimidin-2-yl)amino)pyridin-3-yl)piperazin-1-yl)-2-oxoethyl)amino)-2-(2,6-dioxopiperidin-3-yl)isoindoline-1,3-dione] | efficacy of CDK4/6 degraders, particularly XY028-140 and YX039-123; also recorded: efficacy of CDK4/6 degraders, particularly XY028-140 and YX044-22 and YX044-19 | especially effective in suppressing both CDK4/6 expression and CDK4/6 activity |  | inhibited cancer cell proliferation more effective that palbociclib at the same concentration | inhibited cancer cell proliferation more effective that palbociclib at the same concentration | efficacy of CDK4/6 degraders, particularly XY028-133, XY028-140, XY019-106 and XY028-003 |  |
